Source: publication PMC9059851 (RSC Advances, 2019)

Assay: Zeta potential measurement
Type: physicochemical
Settings: NanoZS, solutions in pH 7.4 phosphate buffer

## C[C@]12CC[C@H](O)C[C@H]1CC[C@@H]1[C@@H]2CC[C@]2(C)[C@@H](c3ccc(=O)oc3)CC[C@]12O [bufalin]
  zeta potential: −0.55 mV
